Source: patent publication US20240180139A1, “SOLVENT FOR INSECT REPELLENT ACTIVE INGREDIENT AND INSECT REPELLENT SYSTEM USING SAME” (Thermacell Repellents, Inc., priority 2021, published 2024)
Like-named read-outs stand apart in the source and are kept apart here. One block for each compound: values may come before it.

Key:
[1] = release / vaporization rate through heated wick of dispensing device; format: physicochemical; conditions: relative to metofluthrin and transfluthrin, in certain test conditions
Excerpt: (§1) Once candidate materials are identified, considerations of whether release rates relative to the selected glycols would be sufficient to deliver good spatial mosquito repellency. […] In one embodiment, an approximate 70:30 solvent ratio of two solvents is provided.

[2] = solubility of pyrethroid active ingredients in glycol solvents
Excerpt: In the development of active ingredient and solvent formulations, glycols, like glycol-related solvents, have physical and chemical characteristics that would not be considered an aspiration hazard. Evaluations of a range of glycol and modified glycol solvents also involved consideration of a variety of materials in contact with these solvents. […] In addition to considerations of the device, solubility of the active ingredients is a significant consideration on several levels. […] Considerations of not only the solvent material but the concentration levels of particular active ingredients ae necessary to create an efficacious formula compatible with heated repeller devices. […] Incorporating active ingredients at such high levels creates additional solubility challenges which further reduces suitable active ingredient candidates.

mosquitoes = assay: outdoor spatial mosquito repellency
Excerpt: as §1, with “provided. In another aspect, the solvent ratio may be a ratio range such as 60-70:40-30, or 65-70:35-30, wherein the sum of specific glycol amounts totals to 100.” for “provided.”

release rate capacity [1]: limited release rate capacity
Compound: OCC(O)CO [glycerol]

solvent quality for insect repellents [2]: not good solvents
Compound: CC(O)CO (centres unmarked) [propylene glycol]

Compound: C/C=C/C1C(C(=O)OCc2c(F)c(F)c(COC)c(F)c2F)C1(C)C (centres unmarked) [metofluthrin]
zone of mosquito repellency (mosquitoes; glycol as solvent, 3-4 Watt heating element): 20 foot
active ingredient concentration in the formula needed for sufficient outdoor mosquito repellency (mosquitoes; outdoors): 4%

Compound: OCCO [ethylene glycol]
solvent quality for insect repellents ([2]; some of the insect repellents, particularly prallethrin (FIG. 6)): not good solvents
